From PubChem BioAssay AID248 (DTP/NCI, 2004)
“And” between values parts separate entries of the source, which are not always exact repeats. Equal values may be shown once. Inconclusive results and toxic doses are left out. No stated cut-off is given here; in the data, active means T/C of 150% or more; inactive means T/C below 125%.

System: L1210 leukemia ip in BDF1 mice, survival T/C
Test: NCI In Vivo Anticancer Drug Screen. Data for tumor model L1210 Leukemia (intraperitoneal) in B6D2F1 (BDF1) mice
Settings: endpoint: mean survival time, higher = longer survival
Procedure, shortened: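 Ratio derived from survival: compound-dosed mice over vehicle-dosed mice, all bearing a transplantable tumor.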

[1] = dose: 15.0 mg/kg/injection, schedule: Q01DX001 (ip), vehicle: carboxymethylcellulose (CMC)
[2] = dose: 100.0 mg/kg/injection, schedule: Q04DX003 (ip), vehicle: Klucel (hydroxypropylcellulose) (HPC)
[3] = dose: 200.0 mg/kg/injection, schedule: Q04DX003 (ip), vehicle: Klucel (hydroxypropylcellulose) (HPC)
[4] = dose: 400.0 mg/kg/injection, schedule: Q04DX003 (ip), vehicle: Klucel (hydroxypropylcellulose) (HPC)
[5] = dose: 100.0 mg/kg/injection, schedule: Q01DX009 (ip), vehicle: Klucel (hydroxypropylcellulose) (HPC)
[6] = dose: 200.0 mg/kg/injection, schedule: Q01DX009 (ip), vehicle: Klucel (hydroxypropylcellulose) (HPC)
[7] = dose: 400.0 mg/kg/injection, schedule: Q01DX009 (ip), vehicle: Klucel (hydroxypropylcellulose) (HPC)

Measured: T/C

c1cc[c]([Pb]([c]2ccccc2)([c]2ccccc2)[c]2ccccc2)cc1
inactive: dose: 50.0 mg/kg/injection, schedule: Q04DX002 (ip), vehicle: Klucel (hydroxypropylcellulose) (HPC) 103 % of control | dose: 100.0 mg/kg/injection, schedule: Q04DX002 (ip), vehicle: Klucel (hydroxypropylcellulose) (HPC) 103 % of control | dose: 200.0 mg/kg/injection, schedule: Q04DX002 (ip), vehicle: Klucel (hydroxypropylcellulose) (HPC) 113 % of control and 115 % of control | dose: 400.0 mg/kg/injection, schedule: Q04DX002 (ip), vehicle: Klucel (hydroxypropylcellulose) (HPC) 101 % of control

CS(=O)(=O)SCc1ccc([N+](=O)[O-])cc1
inactive: [1] 114 % of control | dose: 30.0 mg/kg/injection, schedule: Q01DX001 (ip), vehicle: carboxymethylcellulose (CMC) 101 % of control | dose: 60.0 mg/kg/injection, schedule: Q01DX001 (ip), vehicle: carboxymethylcellulose (CMC) 97 % of control

NC(CSS(=O)(=O)O)=NCCCCCN=C(N)CSS(=O)(=O)O
inactive: dose: 12.5 mg/kg/injection, schedule: Q04DX003 (ip), vehicle: saline with Tween-80 108 % of control | dose: 25.0 mg/kg/injection, schedule: Q04DX003 (ip), vehicle: saline with Tween-80 102 % of control | dose: 50.0 mg/kg/injection, schedule: Q04DX003 (ip), vehicle: saline with Tween-80 96 % of control

c1ccc(P(CCP(CCP(c2ccccc2)c2ccccc2)c2ccccc2)CCP(c2ccccc2)c2ccccc2)cc1 (configuration not stated)
inactive: dose: 100.0 mg/kg/injection, schedule: Q04DX002 (ip), vehicle: saline with Tween-80 90 % of control | dose: 100.0 mg/kg/injection, schedule: Q04DX002 (ip), vehicle: saline 101 % of control | [2] 95 % of control and 101 % of control | dose: 200.0 mg/kg/injection, schedule: Q04DX002 (ip), vehicle: saline with Tween-80 96 % of control | dose: 200.0 mg/kg/injection, schedule: Q04DX002 (ip), vehicle: saline 96 % of control | [3] 96 % of control and 102 % of control | dose: 400.0 mg/kg/injection, schedule: Q04DX002 (ip), vehicle: saline with Tween-80 93 % of control | dose: 400.0 mg/kg/injection, schedule: Q04DX002 (ip), vehicle: saline 101 % of control | [4] 93 % of control

CC(C)c1oc2ccccc2c1C(=O)c1ccncc1
inactive: dose: 75.0 mg/kg/injection, schedule: Q04DX003 (ip), vehicle: saline with Tween-80 97 % of control | dose: 150.0 mg/kg/injection, schedule: Q04DX003 (ip), vehicle: saline with Tween-80 101 % of control | dose: 300.0 mg/kg/injection, schedule: Q04DX003 (ip), vehicle: saline with Tween-80 101 % of control

OCCCN1CCN(CCCC2c3ccccc3Sc3ccc(Cl)cc32)CC1 (configuration not stated)
inactive: dose: 25.0 mg/kg/injection, schedule: Q04DX003 (ip), vehicle: saline 102 % of control | dose: 50.0 mg/kg/injection, schedule: Q04DX003 (ip), vehicle: saline 109 % of control

O=C1CNC(=O)N1
inactive: dose: 50.0 mg/kg/injection, schedule: Q01DX009 (ip), vehicle: saline 105 % of control | dose: 100.0 mg/kg/injection, schedule: Q01DX009 (ip), vehicle: saline 107 % of control | dose: 100.0 mg/kg/injection, schedule: Q04DX003 (ip), vehicle: saline 94 % of control | dose: 200.0 mg/kg/injection, schedule: Q01DX009 (ip), vehicle: saline 96 % of control | dose: 200.0 mg/kg/injection, schedule: Q04DX003 (ip), vehicle: saline 100 % of control | dose: 400.0 mg/kg/injection, schedule: Q01DX009 (ip), vehicle: saline 96 % of control | dose: 400.0 mg/kg/injection, schedule: Q04DX003 (ip), vehicle: saline 98 % of control

NC(=S)c1cn(C2OC(CO)C(O)C2O)c2ncnc(N)c12 (configuration not stated)
inactive: dose: 0.5 mg/kg/injection, schedule: Q03HX016 (ip), vehicle: other 118 % of control | dose: 1.0 mg/kg/injection, schedule: Q03HX016 (ip), vehicle: other 118 % of control | dose: 2.0 mg/kg/injection, schedule: Q03HX024 (ip), vehicle: saline 124 % of control | dose: 3.75 mg/kg/injection, schedule: Q01DX009 (ip), vehicle: carboxymethylcellulose (CMC) 110 % of control | dose: 4.0 mg/kg/injection, schedule: Q08DX002 (ip), vehicle: other 123 % of control | dose: 5.0 mg/kg/injection, schedule: Q01DX001 (ip), vehicle: saline 112 % of control | dose: 7.5 mg/kg/injection, schedule: Q01DX001 (ip), vehicle: carboxymethylcellulose (CMC) 117 % of control | dose: 8.0 mg/kg/injection, schedule: Q08DX002 (ip), vehicle: other 123 % of control | dose: 10.0 mg/kg/injection, schedule: Q01DX001 (ip), vehicle: saline 118 % of control | [1] 122 % of control | dose: 16.0 mg/kg/injection, schedule: Q04DX003 (ip), vehicle: saline 96 % of control
active: dose: 0.5 mg/kg/injection, schedule: Q03HX024 (ip), vehicle: saline 156 % of control | dose: 1.0 mg/kg/injection, schedule: Q03HX024 (ip), vehicle: saline 172 % of control | dose: 2.0 mg/kg/injection, schedule: Q03HX016 (ip), vehicle: other 176 % of control | dose: 8.0 mg/kg/injection, schedule: Q04DX003 (ip), vehicle: saline 151 % of control

NC(N)=NC(N)=NCCCc1ccccc1
inactive: dose: 12.5 mg/kg/injection, schedule: Q01DX001 (ip), vehicle: other 107 % of control | dose: 12.5 mg/kg/injection, schedule: Q04DX003 (ip), vehicle: other 97 % of control | dose: 25.0 mg/kg/injection, schedule: Q01DX001 (ip), vehicle: other 96 % of control | dose: 25.0 mg/kg/injection, schedule: Q04DX003 (ip), vehicle: other 94 % of control | dose: 50.0 mg/kg/injection, schedule: Q01DX001 (ip), vehicle: other 102 % of control | dose: 50.0 mg/kg/injection, schedule: Q04DX003 (ip), vehicle: other 97 % of control | dose: 100.0 mg/kg/injection, schedule: Q01DX001 (ip), vehicle: saline 96 % of control | dose: 200.0 mg/kg/injection, schedule: Q01DX001 (ip), vehicle: saline 96 % of control

CCCCCCC(=O)N(CCCC)CCCC
inactive: dose: 100.0 mg/kg/injection, schedule: Q01DX001 (ip), vehicle: carboxymethylcellulose (CMC) 109 % of control | dose: 100.0 mg/kg/injection, schedule: Q01DX009 (ip), vehicle: carboxymethylcellulose (CMC) 100 % of control and 91 % of control | dose: 100.0 mg/kg/injection, schedule: Q04DX003 (ip), vehicle: carboxymethylcellulose (CMC) 103 % of control | dose: 200.0 mg/kg/injection, schedule: Q01DX001 (ip), vehicle: carboxymethylcellulose (CMC) 95 % of control | dose: 200.0 mg/kg/injection, schedule: Q01DX009 (ip), vehicle: carboxymethylcellulose (CMC) 96 % of control and 104 % of control | dose: 200.0 mg/kg/injection, schedule: Q04DX003 (ip), vehicle: carboxymethylcellulose (CMC) 94 % of control | dose: 400.0 mg/kg/injection, schedule: Q01DX001 (ip), vehicle: carboxymethylcellulose (CMC) 98 % of control | dose: 400.0 mg/kg/injection, schedule: Q04DX003 (ip), vehicle: carboxymethylcellulose (CMC) 92 % of control

CC1CN1P(=O)(N1CC1C)N1CC1C (configuration not stated)
inactive: dose: 13.3 mg/kg/injection, schedule: Q01DX009 (ip), vehicle: saline 124 % of control | dose: 19.0 mg/kg/injection, schedule: Q01DX009 (ip), vehicle: saline 124 % of control | dose: 99.0 mg/kg/injection, schedule: Q01DX009 (ip), vehicle: saline 88 % of control
active: dose: 66.0 mg/kg/injection, schedule: Q01DX001 (ip), vehicle: saline 163 % of control | dose: 150.0 mg/kg/injection, schedule: Q01DX001 (ip), vehicle: saline 159 % of control

CCOC(=O)CCC1(CCC(=O)OCC)c2ccccc2-c2ccccc21
inactive: [5] 97 % of control | [6] 100 % of control | [7] 94 % of control

CCOc1ccccc1NC(=O)Nc1ccccc1C
inactive: [5] 102 % of control | [2] 101 % of control | [6] 100 % of control | [3] 105 % of control | [7] 94 % of control | [4] 103 % of control

[N-]=[N+]=N/C(=C\c1ccccc1)C(=O)c1ccccc1
inactive: dose: 100.0 mg/kg/injection, schedule: Q01DX001 (ip), vehicle: Klucel (hydroxypropylcellulose) (HPC) 94 % of control | dose: 100.0 mg/kg/injection, schedule: Q04DX003 (ip), vehicle: other 100 % of control | dose: 200.0 mg/kg/injection, schedule: Q01DX001 (ip), vehicle: Klucel (hydroxypropylcellulose) (HPC) 98 % of control | dose: 200.0 mg/kg/injection, schedule: Q04DX003 (ip), vehicle: other 98 % of control | dose: 400.0 mg/kg/injection, schedule: Q01DX001 (ip), vehicle: Klucel (hydroxypropylcellulose) (HPC) 94 % of control | dose: 400.0 mg/kg/injection, schedule: Q04DX003 (ip), vehicle: other 91 % of control
